This is an account of results in patent EP0497988A1, “ANTIVIRAL AGENT” (DAINIPPON INK AND CHEMICALS, INC., priority 1990, dated 1992).

In brackets after ≈: the same amount, converted by molar mass.

The subject of one data set is HTLV-IIIB. Kind of data set: Anti-HIV activity by MTT (tetrazolium) method in MT-4 cells. The following applies: for EC₅₀: MT-4 cells infected with HTLV-IIIB, MOI 0.01, 5 days, MTT. Format: cell-based. The method, then:
(§1) Test Method: MMT (the tetrazolium assay) method Cell: MT-4 Cell Virus: HTLV-IIIB (Infection : 3 x 10⁵ plaque forming units (PFU)/ml) MT-4 cells were suspended in a culture medium at 2 x 10⁵ cells/ml and infected with HIV-IIIB at a multiplicity of infection of 0.01. Immediately after infection, 100µl of cell suspension was placed into microtiter tray wells containing various concentrations of the test samples. At the same time, the mock-infected cells were also cultured together with the samples in order to assess the cell toxicity of the test samples to the MT-4 cell. They were cultured in a CO₂-gas incubator at 37°C for 5 days, and the number of viable cells were determined by the MTT method. Antiviral activity is expressed by EC₅₀ (50% effective concentration), the concentration at which the agent protects 50% of the cells from injury by HIV infection, and cell toxicity by CC₅₀ (50% cell toxicity concentration), the concentration at which 50% of the cells are injured by the agent. Selectivity is measured by a selectivity index (S.I), which is expressed by CC₅₀/EC₅₀ (R. Pauwels, et al., J. of […], vol. 20, 1988, pp. 309-321).

Data set [1] deals with MT-4 Cell. Kind of data set: Cell toxicity to mock-infected MT-4 cells by MTT method. Format: cell-based. The following applies: 5 days. The method, then:
as §1

Experiment in data set [2]: as above
Format: cell-based. As to conditions: human, 5 days, read-out: CC₅₀. The method, then: as §1

Data set [3] concerns HIV. Nature of the data set: HIV-induced cytopathic effect: viable count of HIV-infected MT-4 cells (trypan blue exclusion). Background: Damage to the host cells serves as the signal in cytopathic effect assays.
Method: (§2) The anti-HIV activity of each sample was evaluated by the HIV-induced cytopathic effect (CPE) and the expression of the virus-specific antigen.
For data set [4], the system named is MT-4 Cell. Nature of the data set: Viable count of mock-infected MT-4 cells cultured with sample (trypan blue exclusion). Format: cell-based. The method, then:
Samples: MPS-1, MPS-2, MPS-3 and LPS-1 Cell and Virus: MT-4 Cell, MOLT-4 Cell HTLV as one HIV strain was prepared from the supernatant of the HIV-infected cells. The titer for the virus preparation (6 x 10⁵ plaque formation units/ml) was measured by the plaque assay method using MT-4 cells.
The MT-4 cells were mixed with HIV at 0.002MOI (multiplicity of infection), to be cultured at 37°C for 60 min. The virus-absorbing cells were washed and adjusted at 3 x 10⁵ cells/ml (the culture medium was RPMI1640 which supplemented with 10% heat-inactivated fetal calf serum and antibiotic). The suspension of the infected cells was cultured in the presence of the sample, and then cultured in a CO₂-containing atmosphere for 3 days. Then, the medium was replaced with the one containing the same quantity of the sample. Percentages of the viable cells and virus antigen positive cells were counted by the trypan blue exclusion method and indirect fluorescent antibody (IF) methods, respectively.
The test results are given in Tables 1 through 8, where the units for concentration, mock-infected cell count, infected cell count, percentage of HIV-antigen positive cell are µg/ml, x 10⁴cells/ml, and x 10⁴cells/ml, %, respectively.

The test system of data set [5] is HIV. Kind of data set: Expression of virus-specific antigen in HIV-infected MT-4 cells (indirect fluorescent antibody method).
Method: as §2
The mark [6] stands for this setting: 3rd day, concentration 25 µg/ml.
[7] abbreviates: 3rd day, concentration 50 µg/ml.
Where [8] appears, read: 3rd day, concentration 100 µg/ml.
[9] abbreviates: 6th day, concentration 25 µg/ml.
[10] abbreviates: 6th day, concentration 50 µg/ml.
[11] abbreviates: 6th day, concentration 100 µg/ml.
Setting [12] is: 3rd day, concentration 200 µg/ml.
The mark [13] stands for this setting: 3rd day, concentration 500 µg/ml.
[14] abbreviates: 6th day, concentration 200 µg/ml.

Take “sodium salt of octadecyl maltoheptaoside sulfate [MHS-1]”: the EC₅₀ with HTLV-IIIB is 2) > 40 µg/ml. The compound also registered a CC₅₀ in the data set with MT-4 Cell [1] of 355 µg/mL.

Regarding `Cc1cn([C@H]2C[C@H](N=[N+]=[N-])[C@@H](CO)O2)c(=O)[nH]c1=O` [AZT, 3'-azide-3'-deoxythymidine, reference compound], the EC50 with HTLV-IIIB (Human immunodeficiency virus 1, IIIB, MT4, 120 h, read-out: EC₅₀) was found to be 0.0019 µg/mL (≈ 0.00711 µM). In addition, the CC50 at 120 h in data set [2] stood at 3.06 µg/mL (≈ 11.5 µM).

In the data set with HTLV-IIIB, “sodium salt of dodecyl β-D-laminaripentaoside sulfate [LPS-1-1]” gave an EC₅₀ of 0.68 µg/mL. The compound further came in with a CC₅₀ in the data set on MT-4 Cell [1] greater than 1000 µg/mL.

Regarding “sodium salt of dodecyl 4-galactosyl β-D-lactoside sulfate [GTS-1]”, in the data set on HTLV-IIIB, the EC₅₀ is 9.8 µg/mL.

Compound “sodium salt of octadecyl maltohexaoside sulfate [MHS-3]” yielded an EC₅₀ with HTLV-IIIB of 10.36 µg/mL. This compound gave a CC₅₀ in the data set on MT-4 Cell [1] of 580 µg/mL.

Regarding “sodium salt of dodecyl 4-galactosyl-β-D-lactoside sulfate [GTS-2]”, in the data set on HTLV-IIIB, the EC₅₀ amounted to 8.6 µg/mL. In the data set with MT-4 Cell [1], this compound displayed a CC₅₀ of 858 µg/mL.

Take “sodium salt of sulfated dodecyl β-D-laminarpentaoside [LPS-1]”: the HIV-infected cell count amounted to 133 x 10⁴cells/ml in the data set on HIV [3] (setting [6]); 128 x 10⁴cells/ml in the data set on HIV [3] (setting [7]); 130 x 10⁴cells/ml in the data set with HIV [3] (setting [8]); 88 x 10⁴cells/ml with HIV [3] (setting [9]); 150 x 10⁴cells/ml in the data set on HIV [3] (setting [10]); 107 x 10⁴cells/ml in the data set with HIV [3] (setting [11]). Also, the Mock-infected cell count in the data set with MT-4 Cell [4] (setting [6]) was 151 x 10⁴cells/ml; with MT-4 Cell [4] (setting [7]) it was 149 x 10⁴cells/ml; with MT-4 Cell [4] (setting [8]) it was 136 x 10⁴cells/ml; with MT-4 Cell [4] (setting [12]), 120 x 10⁴cells/ml; in the data set on MT-4 Cell [4] (setting [13]), 79 x 10⁴cells/ml; with MT-4 Cell [4] (setting [9]) it was 145 x 10⁴cells/ml. For the same compound, the results for the Mock-infected cell count in the data set on MT-4 Cell [4] (setting [10]), with MT-4 Cell [4] (setting [11]) and in the data set with MT-4 Cell [4] (setting [14]) were 149 x 10⁴cells/ml, 140 x 10⁴cells/ml and 124 x 10⁴cells/ml, respectively. In addition, the “Percentage of HIV-antigen positive cell” value in the data set with HIV [5] (setting [6]) is 3%; in the data set on HIV [5] (setting [7]), less than 1%; in the data set on HIV [5] (setting [8]), less than 1%; in the data set on HIV [5] (setting [12]), less than 1%; with HIV [5] (setting [13]), less than 1%; with HIV [5] (setting [9]) it was 20%. In addition, the “Percentage of HIV-antigen positive cell” value is listed as less than 1% in the data set with HIV [5] (setting [10]), 0% in the data set on HIV [5] (setting [11]) and 0% with HIV [5] (setting [14]).

Regarding “sodium salt of n-decyl β-laminaripentaoside sulfate [LPS-3]”, in the data set on HTLV-IIIB, the EC₅₀ result is recorded as “= 67 µg/ml”.

Regarding “sodium salt of dodecyl maltohexaoside sulfate [MHS-2]”, the EC₅₀ with HTLV-IIIB amounted to 3.91 µg/mL. The CC₅₀ in the data set with MT-4 Cell [1] was greater than 1000 µg/mL.

In the case of “sodium salt of n-hexadecyl β-laminaripentaoside sulfate [LPS-2]”, the EC₅₀ entry in the data set on HTLV-IIIB is “= 17 µg/ml”.

With “sodium salt of octadecyl maltotrioside sulfate [MTS-1]”, in the data set on HTLV-IIIB, the EC₅₀ is recorded as 1) > 40 µg/ml. The compound also showed a CC₅₀ in the data set with MT-4 Cell [1] of 329 µg/mL.
